Measurements taken from paper PMC9974506 (Proceedings of the National Academy of Sciences of the …, 2023).

Target: T1, BRTNaC1 (broad-range thermal receptor 1) (Scolopendra mutilans, UniProt A0ABF7PQ77)
T1 sequence (A0ABF7PQ77 1-431): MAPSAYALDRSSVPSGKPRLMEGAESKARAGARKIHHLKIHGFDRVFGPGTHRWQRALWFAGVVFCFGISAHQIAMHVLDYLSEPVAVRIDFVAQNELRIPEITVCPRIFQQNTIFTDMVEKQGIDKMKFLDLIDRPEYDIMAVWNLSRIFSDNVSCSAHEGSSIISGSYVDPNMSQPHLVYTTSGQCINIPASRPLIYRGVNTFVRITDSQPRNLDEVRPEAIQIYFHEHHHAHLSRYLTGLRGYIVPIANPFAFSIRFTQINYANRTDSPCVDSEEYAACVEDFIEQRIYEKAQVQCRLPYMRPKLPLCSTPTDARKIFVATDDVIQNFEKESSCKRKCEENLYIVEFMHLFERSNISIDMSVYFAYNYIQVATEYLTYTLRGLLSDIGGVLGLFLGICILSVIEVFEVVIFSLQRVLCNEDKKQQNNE
Test: patch clamp, transfected HEK293 cells, heat-activated current, Hill fit
Assay type: cell-based

## C[C@]12CC[C@H]3[C@@H](CCC4=CC(=O)CC[C@@]43C)[C@@H]1CC[C@@H]2O [testosterone]
  IC50: 3.8 ± 1.1 µM
